# How the values were obtained:
# G1.1 nVLP = assay: Peptide affinity column binding and elution of G1.1 nVLP produced in insect cells; set-up: species or system norovirus; conditions: eluted under same conditions as G2.4 nVLP
# Text: Noroviruses bind to histo-blood group antigens (HBGAs), which are carbohydrates that contain structurally related saccharide moieties, wherein type 1 and type 2 carbohydrate core structures constitute antigenically distinct variants. Several, but not all, noroviruses specifically bind to HBGAs, which are believed to function as receptors for docking and entry into the cell during infection. As previously mentioned, peptide nVLP1 was selected to specifically bind to G2.4 Minerva nVLPs. […] We therefore have identified at ligand that has cross reactivity to G1 and G2 capsid proteins in VLPs, with homology between genogroups I and II around 50%.
# [1] = system: G2.4 Minerva nVLP (norovirus-like particles, VP1 capsid protein); assay: Peptide affinity column capture and elution of nVLP from tobacco cell lysate; conditions: nVLP1 immobilized on a bead
# Text: Coupling to Support: All 6 candidate peptides were synthesized by solid-phase peptide synthesis using standard FMOC chemistry and subsequently cleaved off the resin. The candidate peptides were attached to an iodoacetyl functionalized affinity matrix at a specifically determined level. The benefits of coupling our peptides to the affinity matrix as opposed to direct synthesis onto the bead are that it allows for greater control of the levels of peptide that are immobilized. The suitability of a ligand for affinity chromatography depends on its ability to bind the target molecule specifically and reversibly with an adequate affinity. […]
# To test the recovery yield of the column, cell lysate containing ˜500 μg of VP1 (as measured by SDS-PAGE) was loaded on the column and ˜470 μg of VP1 was recovered for a 94% yield. The dynamic binding capacity of the chromatography media was determined and is defined as the amount of target protein that the media binds under actual flow conditions before significant breakthrough of unbound protein occurs. […]
# Briefly, a large volume of VP1 containing lysate was prepared and its absorbance at 280 nm measured. This solution was continually loaded onto the column and the flow through measured for absorbance. The point at which breakthrough occurred, defined as 10% absorbance of the lysate, was used to calculate the binding capacity. […]
sequence,measurement,setting,value
"LLYNKTFPHGRWSPSYPGSC (Peptide Ligand) [nVLP1, 20 mer peptide ligand for norovirus-like particles, optimal ligand]",binding to G1.1 nVLP (cross reactivity G1/G2),G1.1 nVLP,shown to bind G1.1 nVLP
same,capture of nVLP from cell lysate,[1],able to capture nVLP from cell lysate

# Reference: patent US20130224730A1, “PEPTIDE LIGANDS” (ARIZONA BOARD OF REGENTS ACTING FOR AND ON BEHALF OF …, priority 2009, published 2013)
